We go through four molecules from patent US7999069B2, “EphB receptor-binding peptides” (Sanford-Burnham Medical Research Institute, priority 2005, dated 2011).

Data set [1] is described as follows: Solubility in aqueous buffers. The data set is classed as physicochemical. The source says:
To determine whether different phage clones target overlapping Eph receptor binding sites, the EWLS EphB1-binding peptide and the TNYL EphB4-binding peptide were chemically synthesized. […] Peptides were synthesized using Fmoc (N-(9-fluorenyl)methoxycarbonyl) chemistry and purified by high pressure liquid chromatography. Biotinylated peptides were synthesized with a carboxy-terminal GSGSK linker with biotin attached to the lysine side chain or with a carboxy-terminal GSGS sequence linked to a carboxy-terminal N-biotinyl-N′-Fmoc-ethylenediamine (Novabiochem). Matrix-assisted laser desorption ionization-time of flight mass spectrometry was used to verify proper peptide synthesis, and purity. Stock solutions of the peptides were dissolved in phosphate buffered saline (PBS, Irvine Scientific) and the pH was verified to be ˜6.5. […] Peptide concentrations were calculated based on (O)280.

For another data set, the system named is EphB receptors. Briefly: Peptide pull-down of endogenous EphB receptors from lysates. In kind it is binding. Conditions: peptide on streptavidin beads; mouse brain or cultured cell lysates. The procedure:
The ability of the peptides to bind in a stable manner, which is important for both targeting and competitive inhibition, was tested in pull-down experiments. For peptide pull-down experiments, cells in 60 cm plates at 70% confluency or adult mouse brain tissue were solubilized in pull-down buffer (50 mM HEPES pH 7.5, 150 mM NaCl, 10% glycerol, 1% Triton-X100, 5 mM KCl and 1 mM EDTA). Three μg of biotinylated peptide were incubated for 45-90 min with 5 μl streptavidin agarose beads (Sigma), unbound peptide was washed away, and the beads were incubated with the cell lysates for 45-90 min. Proteins bound to the beads were separated by SDS-polyacrylamide gel electrophoresis and probed by immunoblotting with EphB1, EphB2, or EphB4 antibodies. The EphB1 antibody (Santa Cruz) was detected with a secondary anti-goat IgG peroxidase-conjugated antibody (BioRad Laboratories). The EphB2 and EphB4 antibodies were affinity-purified polyclonal antibodies to GST fusion proteins containing approximately 100 amino acids from the carboxy-terminal tails of the EphB2 or EphB4 receptors (Noren, N. K. et al. 2004 PNAS USA 101:5583-5588; Holash, J. A. & Pasquale, E. B. 1995 Devel Biol 172:683-693) and were detected with a secondary anti-rabbit IgG peroxidase-conjugated antibody (Amersham Biosciences). […]

The subject of the next data set is COS cells. Particulars: 400 μM peptide; […] ephrin-B1 Fc.
Data set [2] has as its target T1, EphB4 (Homo sapiens, UniProt P54760).
T1 construct: panned on the ectodomains of EphB1, EphB2, or EphB4 fused to human Fc
T1 sequence (P54760 16-539 limits assumed): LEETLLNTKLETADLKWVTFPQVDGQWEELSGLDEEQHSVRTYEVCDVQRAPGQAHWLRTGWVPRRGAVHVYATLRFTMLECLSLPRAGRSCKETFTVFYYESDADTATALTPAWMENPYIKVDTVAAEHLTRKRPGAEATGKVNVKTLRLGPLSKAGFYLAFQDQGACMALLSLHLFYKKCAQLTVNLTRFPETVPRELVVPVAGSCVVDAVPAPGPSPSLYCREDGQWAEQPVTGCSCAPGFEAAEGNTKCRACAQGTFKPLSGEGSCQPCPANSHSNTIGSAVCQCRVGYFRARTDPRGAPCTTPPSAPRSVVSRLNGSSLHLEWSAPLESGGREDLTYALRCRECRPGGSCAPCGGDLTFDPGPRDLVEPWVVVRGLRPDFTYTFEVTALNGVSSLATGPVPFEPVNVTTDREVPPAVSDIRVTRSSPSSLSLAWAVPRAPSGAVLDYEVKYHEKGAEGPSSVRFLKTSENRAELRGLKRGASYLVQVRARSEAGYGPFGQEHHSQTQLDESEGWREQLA
Briefly: Peptide competition of phage binding to EphB4 ectodomain. Particulars: concentration-dependent. As to the method: To measure peptide competition of phage binding to EphB receptors, Ni-NTA wells coated with Eph ectodomain Fc were incubated for 30 min at room temperature with various peptide concentrations in binding buffer (100 μl/well). Concentrated stocks of phage clones diluted between 1:500 and 1:10,000 in binding buffer were then added to the wells for a 1 hr at room temperature. Wells were washed and bound phage were detected using the anti-M13 antibody. A biotinylated control peptide with sequence unrelated to the sequences of the Eph-binding peptides ([…], SEQ ID NO: 40) was used as a negative control in some of the experiments, as indicated in the figure legends.
[…]. The SNEW peptide at 25 μM inhibited EphB2 binding of most phage clones isolated by panning on EphB2 (FIGS. 2E and G). The only exceptions were the IHWP, DHRWV and WHWT clones. However, binding of these clones was inhibited by 50 μM SNEW peptide, particularly when the phage concentration was halved. […] Bound phage were detected using anti-M13 phage antibody coupled to HRP and phage binding in the presence of peptide was normalized to phage binding in the absence of peptide. Error bars indicate standard deviation from duplicate measurements, and were calculated taking into account propagation of errors.

The target in data set [3] is T2, EphB4 (Homo sapiens, UniProt P54760).
T2 construct: MCF-7 human breast cancer cells, which endogenously express EphB4; endogenous in cells; host or cells: MCF7
T2 sequence (P54760 16-987): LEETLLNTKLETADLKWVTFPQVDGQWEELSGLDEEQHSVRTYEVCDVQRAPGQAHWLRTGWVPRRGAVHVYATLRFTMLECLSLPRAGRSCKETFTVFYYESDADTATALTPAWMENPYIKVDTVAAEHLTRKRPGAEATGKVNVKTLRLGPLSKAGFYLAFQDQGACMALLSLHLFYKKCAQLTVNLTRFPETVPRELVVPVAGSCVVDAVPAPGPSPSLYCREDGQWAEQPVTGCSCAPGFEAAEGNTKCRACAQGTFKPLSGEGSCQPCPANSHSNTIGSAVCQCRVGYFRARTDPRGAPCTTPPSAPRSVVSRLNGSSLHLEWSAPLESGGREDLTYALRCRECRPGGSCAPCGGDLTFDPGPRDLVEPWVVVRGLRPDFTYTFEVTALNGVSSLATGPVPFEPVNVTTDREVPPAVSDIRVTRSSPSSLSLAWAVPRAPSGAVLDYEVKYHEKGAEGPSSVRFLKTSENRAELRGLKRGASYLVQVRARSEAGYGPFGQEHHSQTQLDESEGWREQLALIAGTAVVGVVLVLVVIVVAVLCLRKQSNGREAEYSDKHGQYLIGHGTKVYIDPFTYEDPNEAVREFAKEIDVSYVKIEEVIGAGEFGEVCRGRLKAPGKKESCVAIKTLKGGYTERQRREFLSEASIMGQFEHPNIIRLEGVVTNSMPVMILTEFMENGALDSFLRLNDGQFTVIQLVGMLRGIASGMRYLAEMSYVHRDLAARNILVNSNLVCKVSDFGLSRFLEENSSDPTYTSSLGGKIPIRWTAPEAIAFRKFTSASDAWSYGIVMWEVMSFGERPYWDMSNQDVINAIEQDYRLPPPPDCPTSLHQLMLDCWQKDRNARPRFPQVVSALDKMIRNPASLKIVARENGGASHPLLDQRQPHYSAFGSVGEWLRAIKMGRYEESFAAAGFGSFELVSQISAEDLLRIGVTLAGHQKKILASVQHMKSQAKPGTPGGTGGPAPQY
Briefly: Peptide pull-down of EphB4 from MCF7 or transfected 293T cells. The data set is classed as binding. The procedure: The ability of the peptides to bind in a stable manner, which is important for both targeting and competitive inhibition, was tested in pull-down experiments. For peptide pull-down experiments, cells in 60 cm plates at 70% confluency or adult mouse brain tissue were solubilized in pull-down buffer (50 mM HEPES pH 7.5, 150 mM NaCl, 10% glycerol, 1% Triton-X100, 5 mM KCl and 1 mM EDTA). Three μg of biotinylated peptide were incubated for 45-90 min with 5 μl streptavidin agarose beads (Sigma), unbound peptide was washed away, and the beads were incubated with the cell lysates for 45-90 min. Proteins bound to the beads were separated by SDS-polyacrylamide gel electrophoresis and probed by immunoblotting with EphB1, EphB2, or EphB4 antibodies. The EphB1 antibody (Santa Cruz) was detected with a secondary anti-goat IgG peroxidase-conjugated antibody (BioRad Laboratories). The EphB2 and EphB4 antibodies were affinity-purified polyclonal antibodies to GST fusion proteins containing approximately 100 amino acids from the carboxy-terminal tails of the EphB2 or EphB4 receptors (Noren, N. K. et al. 2004 PNAS USA 101:5583-5588; Holash, J. A. & Pasquale, E. B. 1995 Devel Biol 172:683-693) and were detected with a secondary anti-rabbit IgG peroxidase-conjugated antibody (Amersham Biosciences).
Endogenous EphB receptors were isolated from lysates of mouse brain or cultured cells using the EWLS, SNEW, and TNYL peptides immobilized on streptavidin beads (FIGS. 5B, F, G and H). […] RTVA was used as a control peptide for the EphB4 pull downs. The NPVI peptide could isolate EphB4 from transfected cells but not endogenous EphB4 from MCF7 cells, which is present at lower levels (FIGS. 5B, F, G and H). […] EphB receptors were not detected bound to the beads coated with the other peptides.

Another data set deals with T3, EphB2 (Homo sapiens, UniProt P29323).
T3 sequence (P29323 19-1055): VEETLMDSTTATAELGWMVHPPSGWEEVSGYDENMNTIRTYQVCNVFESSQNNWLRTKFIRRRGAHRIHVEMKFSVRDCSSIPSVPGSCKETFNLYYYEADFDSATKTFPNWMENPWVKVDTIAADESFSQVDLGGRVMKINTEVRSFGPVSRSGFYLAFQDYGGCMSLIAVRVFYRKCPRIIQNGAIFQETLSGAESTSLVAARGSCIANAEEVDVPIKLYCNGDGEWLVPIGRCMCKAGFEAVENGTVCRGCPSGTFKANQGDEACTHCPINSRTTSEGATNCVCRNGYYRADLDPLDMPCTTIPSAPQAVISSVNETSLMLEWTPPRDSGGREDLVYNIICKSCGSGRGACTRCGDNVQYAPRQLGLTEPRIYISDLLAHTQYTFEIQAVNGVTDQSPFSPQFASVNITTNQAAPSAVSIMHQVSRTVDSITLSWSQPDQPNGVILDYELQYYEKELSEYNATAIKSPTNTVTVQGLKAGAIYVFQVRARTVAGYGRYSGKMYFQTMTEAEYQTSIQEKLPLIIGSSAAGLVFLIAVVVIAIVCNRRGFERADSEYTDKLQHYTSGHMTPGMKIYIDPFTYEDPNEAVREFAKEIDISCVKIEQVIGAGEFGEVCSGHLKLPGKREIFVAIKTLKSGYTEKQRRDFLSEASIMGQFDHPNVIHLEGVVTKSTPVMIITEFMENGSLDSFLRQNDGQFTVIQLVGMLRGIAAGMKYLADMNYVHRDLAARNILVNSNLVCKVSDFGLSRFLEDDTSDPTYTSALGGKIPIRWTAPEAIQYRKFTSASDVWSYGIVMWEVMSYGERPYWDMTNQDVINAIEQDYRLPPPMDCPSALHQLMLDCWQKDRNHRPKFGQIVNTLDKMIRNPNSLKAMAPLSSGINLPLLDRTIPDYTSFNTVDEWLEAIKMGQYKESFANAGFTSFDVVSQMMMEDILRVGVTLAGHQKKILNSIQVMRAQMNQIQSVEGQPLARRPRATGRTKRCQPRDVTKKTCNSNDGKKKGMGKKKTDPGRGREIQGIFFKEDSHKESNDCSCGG
Conditions: read-out: KD for monovalent EphB2-ephrin-B2 interaction; cited from earlier work.

Method for COS cells: Upon treatment with 1.5 μg/ml ephrin-B1 Fc, COS cells retract at the periphery, leaving behind spike-like protrusions. […] COS cells were plated onto glass coverslips and sixteen hours later were starved for three hours in DME with 0.5% fetal calf serum. The cells were then incubated for 20 min with 400 μM SNEW or control peptide in PBS, or an equal volume of PBS as a control, and then either left untreated or stimulated for 10 min with 1.5 μg/ml ephrinB1-Fc (R&D Systems, Inc.). […] Control peptide: RTVA.

On to `CC[C@H](C)[C@H](NC(=O)[C@H](C)NC(=O)[C@H](Cc1ccccc1)NC(=O)[C@@H]1CCCN1C(=O)[C@H](CCC(=O)O)NC(=O)[C@@H](NC(=O)[C@@H](NC(=O)[C@H](Cc1c[nH]c2ccccc12)NC(=O)[C@H](Cc1c[nH]cn1)NC(=O)[C@@H](N)Cc1c[nH]c2ccccc12)[C@@H](C)O)[C@@H](C)CC)C(=O)N[C@H](C(=O)N[C@@H](CO)C(=O)O)[C@@H](C)O` [SEQ ID NO 8], for which, in data set [1], the “Solubility in aqueous buffers” value was “low solubility”.

Consider `CC[C@H](C)[C@H](NC(=O)[C@H](Cc1c[nH]c2ccccc12)NC(=O)[C@H](CCC(=O)O)NC(=O)[C@H](CC(N)=O)NC(=O)[C@@H](N)CO)C(=O)N[C@@H](CCC(N)=O)C(=O)N1CCC[C@H]1C(=O)N[C@@H](CCCNC(=N)N)C(=O)N[C@@H](CC(C)C)C(=O)N1CCC[C@H]1C(=O)N[C@@H](CCC(N)=O)C(=O)N[C@@H](Cc1c[nH]cn1)C(=O)O` [SEQ ID NO 18], for which the “Stable binding of EphB receptors in pull-down” value in the data set on EphB receptors is recorded as “stably bind EphB receptors”. Moreover, the “Inhibition of COS cell retraction phenotype” value in the data set with COS cells is reported as “inhibited the COS cell retraction phenotype”.

For “SEQ ID NO 20: 12-mer from EphB4 panning; printed DAL[image]D[image]L[image]FRPW (DALNDWLLFRPW)”, the “Inhibition of DALN phage binding to immobilized EphB4 ectodomain” value with EphB4 [2] is reported as “inhibited binding of DALN phage”. In the data set with EphB4 [3], the “Pull-down of EphB4, peptides used alone or together” value is “ineffective”.

B1: ephrin-B2: ephrin ligand; monovalent interaction with EphB2, literature KD (protein, UniProt P52799 28-333, looked up)
Ephrin-B2: IVLEPIYWNSSNSKFLPGQGLVLYPQIGDKLDIICPKVDSKTVGQYEYYKVYMVDKDQADRCTIKKENTPLLNCAKPDQDIKFTIKFQEFSPNLWGLEFQKNKDYYIISTSNGSLEGLDNQEGGVCQTRAMKILMKVGQDASSAGSTRNKDPTRRPELEAGTNGRSSTTSPFVKPNPGSSTDGNSAGHSGNNILGSEVALFAGIASGCIIFIVIIITLVVLLLKYRRRHRKHSPQHTTTLSLSTLATPKRSGNNNGSEPSDIIIPLRTADSVFCPHYEKVSGDYGHPVYIVQEMPPQSPANIYYKV
As a reminder, the Kd is the equilibrium constant for the complex coming apart. On to B1, for which, in the data set with EphB2, the Kd is 0.016 µM.
